# Assay: Particle size distribution by laser diffraction (Sympatec Helos)
# Type: physicochemical
# Description: As used herein, “particle size distribution” means the distribution of equivalent spherical diameters as determined by laser diffraction in a Sympatec Helos equipment. The particle size distributions for fillers and uncompacted citalopram are determined at 1 bar dispersive pressure, whereas the particle size distributions for compacted granulates are determined at 0.2 bar dispersive pressure in order to avoid deaggregation of the granules leading to erroneous results. “Median particle size”, correspondingly, means the median of said particle size distribution.
# [1] = Sympatec Helos, 1 bar dispersive pressure for fillers and uncompacted citalopram, 0.2 bar for compacted granulates
compound,measurement,setting,value
CN(C)CCCC1(c2ccc(F)cc2)OCc2cc(C#N)ccc21 (centres unmarked) [Citalopram HBr],"Particle size distribution, quantile 10%",[1],1.2 μm
same,"Particle size distribution, quantile 50% (median particle size)",[1],14.0 μm
same,"Particle size distribution, quantile 90%",[1],72.3 μm
same,"Particle size distribution, quantile 95%",[1],97.0 μm
same,Particle size,"product of the process used for preparation of citalopram hydrobromide, general statement",2-20 μm
